Laboratory results taken from patent US20250215014A1, “KINASE INHIBITORS, PREPARATION METHODS AND USES THEREOF” (InventisBio Co., Ltd., priority 2022, published 2025).

What was measured:
DGKa = DGKa (Homo sapiens (Human), UniProt P23743); experiment: DGK ADP-Glo Kinase Assay (DGKa); type: biochemical; conditions: 10 nM DGKa, 15 uM ATP
Procedure: (§1) Luminescence was recorded using an Tecan SPARK microplate reader.

DGKz = DGKz (Homo sapiens (Human), UniProt Q13574); experiment: DGK ADP-Glo Kinase Assay (DGKz); type: biochemical; conditions: 5 nM DGKz, 15 uM ATP
DGKz, sequence (Q13574 whole entry): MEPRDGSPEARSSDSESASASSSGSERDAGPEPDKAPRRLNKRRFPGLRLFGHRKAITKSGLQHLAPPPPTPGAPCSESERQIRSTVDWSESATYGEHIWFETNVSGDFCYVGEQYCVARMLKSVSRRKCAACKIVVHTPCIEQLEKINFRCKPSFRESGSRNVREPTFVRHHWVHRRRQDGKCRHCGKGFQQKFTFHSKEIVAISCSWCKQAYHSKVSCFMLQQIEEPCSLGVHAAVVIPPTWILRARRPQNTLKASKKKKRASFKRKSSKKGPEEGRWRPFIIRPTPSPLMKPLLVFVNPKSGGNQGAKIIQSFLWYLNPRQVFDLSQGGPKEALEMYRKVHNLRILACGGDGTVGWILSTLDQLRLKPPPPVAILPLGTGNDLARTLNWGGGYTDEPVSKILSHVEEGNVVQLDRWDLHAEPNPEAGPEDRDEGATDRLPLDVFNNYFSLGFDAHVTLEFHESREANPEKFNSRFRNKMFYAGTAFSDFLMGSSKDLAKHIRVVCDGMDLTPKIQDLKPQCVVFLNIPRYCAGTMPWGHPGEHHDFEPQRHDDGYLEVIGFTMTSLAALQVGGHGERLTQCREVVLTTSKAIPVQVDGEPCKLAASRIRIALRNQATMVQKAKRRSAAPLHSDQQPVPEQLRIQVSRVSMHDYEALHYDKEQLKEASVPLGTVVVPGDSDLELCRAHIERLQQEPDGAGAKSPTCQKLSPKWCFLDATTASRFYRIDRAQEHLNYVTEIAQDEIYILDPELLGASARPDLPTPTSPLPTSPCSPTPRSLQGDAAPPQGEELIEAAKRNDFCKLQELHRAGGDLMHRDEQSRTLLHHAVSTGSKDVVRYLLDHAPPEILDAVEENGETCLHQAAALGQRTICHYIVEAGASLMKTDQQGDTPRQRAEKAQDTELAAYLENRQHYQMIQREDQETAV
Procedure: as §1

PBMC = experiment: Human PBMC IL-2 Assay; type: cell-based; conditions: anti-CD3/CD28 antibody, IL-2 level
Procedure: PBMC (frozen) obtained from health donor were thawed in RPMI-1640 medium with 10% o FBS, incubated for 4 h at 37° C. In a 96-well plate, 200,000 PBMC cells in 160 uL were added to each assay well. Ten microliter compound solution (10 uM to 0.6 nM, 8 points with 4-fold dilution) were added to cells in each well and incubated for 60 minutes at 37° C. Then 30 uL anti-CD3/CD28 antibody (Catalog #10991, Stemcell) were added to cells and incubated overnight at 37° C. After the incubation, 16 uL supernatants were transferred into a new 384-well white assay plate for cytokine analysis. IL-2 level was quantified using Human IL-2 kit (Catalog #62HIL02PEG, Cisbio) as described in the manufacturer manual.
Activation at […] activity (EC50) was calculated with the equation: […]
(§2) X is log of compound concentration, Y is the IL-2 concentration, increasing as X increases.

Jurkat cells = experiment: Jurkat IL-2 Assay; type: cell-based; conditions: Homo sapiens, anti-CD3/CD28 antibody, IL-2 level
Procedure: Jurkat cells (ATCC) were cultured in RPMI-1640 medium supplemented with 10% FBS. In a 96-well plate, 250,000 cells in 130 uL were added to each assay well. Ten microliter compound solution (5 uM to 2.3 nM, 8 points with 3-fold dilution) were added to cells in each well and incubated for 60 minutes at 37° C. Then 10 uL anti-CD3/CD28 antibody (Catalog #10991, Stemcell) were added and incubated overnight at 37° C. After the incubation, 16 uL supernatants were transferred into a new 384-well white assay plate for cytokine analysis. IL-2 was quantified using Human IL-2 kit (Catalog #62HIL02PEG, Cisbio) as described in the manufacturer manual.
as §2

DGKa, sequence (P23743 whole entry): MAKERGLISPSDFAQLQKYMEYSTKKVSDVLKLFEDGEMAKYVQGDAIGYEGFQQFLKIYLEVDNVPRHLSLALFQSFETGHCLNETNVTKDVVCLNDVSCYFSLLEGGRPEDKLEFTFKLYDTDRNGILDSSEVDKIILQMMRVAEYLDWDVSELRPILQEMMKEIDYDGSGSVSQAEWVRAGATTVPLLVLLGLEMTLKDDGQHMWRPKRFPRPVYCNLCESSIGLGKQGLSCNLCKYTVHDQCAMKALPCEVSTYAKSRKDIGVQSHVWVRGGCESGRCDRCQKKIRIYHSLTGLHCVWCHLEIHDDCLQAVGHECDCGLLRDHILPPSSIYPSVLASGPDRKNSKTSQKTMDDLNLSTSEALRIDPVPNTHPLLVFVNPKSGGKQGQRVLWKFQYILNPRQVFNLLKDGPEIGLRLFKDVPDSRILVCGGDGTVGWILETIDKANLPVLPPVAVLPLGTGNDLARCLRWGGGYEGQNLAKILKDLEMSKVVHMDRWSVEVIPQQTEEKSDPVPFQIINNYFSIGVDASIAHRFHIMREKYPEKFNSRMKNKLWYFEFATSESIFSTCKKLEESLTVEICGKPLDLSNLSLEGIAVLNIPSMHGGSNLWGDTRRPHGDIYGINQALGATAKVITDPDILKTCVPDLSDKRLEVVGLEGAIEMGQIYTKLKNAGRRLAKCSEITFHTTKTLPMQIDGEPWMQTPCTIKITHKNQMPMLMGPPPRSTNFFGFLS

| Structure (SMILES) | IC50 (DGKa) [nM] | IC50 (DGKz) [nM] | EC50 (Jurkat cells) [nM] | EC50 (PBMC) [nM] |
| --- | --- | --- | --- | --- |
| CC[C@H]1C[C@@H](Oc2ccc(OC(F)(F)F)cc2)CCN1c1nc(=O)n(C)c2ccc(C#N)nc12 [Compound 17] | < 100 | 100 to 1000 |  | < 500 |
| Cn1c(=O)c(C(N)=O)c(N2CCC3(CCN(c4ccc(OC(F)(F)F)cc4)C3)CC2)c2nc(C#N)ccc21 [Compound 6] | 100 to 1000 | 100 to 1000 |  | > 1000 |
| Cc1ccc2oc(C3(C)CCN(c4c(C#N)c(=O)n(C)c5ccc(C#N)nc45)CC3)nc2c1 [Compound 7] |  |  |  | < 500 |
| Cn1c(=O)nc(N2CCC(Oc3ccc(OC(F)(F)F)cc3)CC2)c2nc(C#N)ccc21 [Compound 5] | 100 to 1000 | 100 to 1000 |  | 500 to 1000 |
| Cn1c(=O)nc(N2CCC3(CC2)CC(c2ccccc2C(F)(F)F)=NO3)c2nc(C#N)ccc21 [Compound 48] |  |  |  | > 1000 |
| CC[C@H]1C[C@@H](c2nc3cc(C)ccc3o2)CCN1c1nc(=O)n(C)c2cc(O[C@H]3CCOC3)c(Cl)cc12 [Compound 93] | < 100 | 100 to 1000 |  |  |
| CC[C@@H]1C[C@H](c2nc3cc(C)ccc3o2)CCN1c1nc(=O)n(C)c2cc(O[C@H]3CCOC3)c(Cl)cc12 [Compound 91] | < 100 | > 1000 |  |  |
| Cc1ccc2oc(C3CCN(c4nc(=O)n(C)c5ccc6nncn6c45)CC3)nc2c1 [Compound 22] | < 100 | > 1000 |  |  |
| CC[C@@H]1CN2c3c(c(=O)n(C)c4ccc(C#N)nc34)OC[C@@H]2CN1[C@H](CC)c1ccc(C(F)(F)F)cc1 [Compound 122] | < 100 | < 100 |  |  |
| CC[C@H]1CN(C(c2ccc(S(F)(F)(F)(F)F)cc2)c2nc(C3CC3)no2)[C@H](CC)CN1c1nc(=O)n(C)c2ccc(C#N)nc12 (some centres unmarked) [Compound 64] | < 100 | < 100 |  |  |
| CC[C@H]1CN(C(COC)c2ccc(S(F)(F)(F)(F)F)cc2)[C@H](CC)CN1c1nc(=O)n(C)c2ccc(C#N)nc12 (some centres unmarked) [Compound 78] | < 100 | < 100 |  |  |
| CC[C@H]1CN([C@H](CC)c2cccc(S(F)(F)(F)(F)F)c2)[C@H](CC)CN1c1nc(=O)n(C)c2ccc(C#N)nc12 (stereo in doubt) [Compound 56] | 100 to 1000 | 100 to 1000 |  |  |

Second part, led by results:

| IC50 (DGKa) [nM] | IC50 (DGKz) [nM] | EC50 (Jurkat cells) [nM] | Structure (SMILES) | EC50 (PBMC) [nM] |
| --- | --- | --- | --- | --- |
| > 1000 | < 100 |  | CC[C@@H]1C[C@@H](Oc2ccc(OC(F)(F)F)cc2)CCN1c1nc(=O)n(C)c2ccc(C#N)nc12 (stereo in doubt) [Compound 19] | 500 to 1000 |
| 100 to 1000 | < 100 | 500 to 1000 | CC[C@H]1CN([C@@H]2CCCCc3cc(C(F)(F)F)ccc32)[C@H](CC)CN1c1nc(=O)n(C)c2ccc(C#N)nc12 [Compound 45] |  |
|  |  | < 500 | C[C@H]1CC2(CCN1c1nc(=O)n(C)c3ccc(C#N)nc13)CC(c1ccc(OC(F)(F)F)cc1)=NO2 (some centres unmarked) [Compound 50] |  |
|  |  | > 1000 | Cn1c(=O)nc(N2CCC(Oc3ccc(OC(F)(F)F)cc3)CC2)c2c1ccc1nncn12 [Compound 21] |  |
| > 1000 | > 1000 |  | Cc1ccccc1-n1cc(C2CCN(c3nc(=O)n(C)c4ccc(C#N)nc34)CC2)cn1 [Compound 12] |  |
| < 100 | 100 to 1000 |  | CN(c1cccc(C#CC2CC2)c1)c1nc(=O)n(C)c2ccc(C#N)nc12 [Compound 46] |  |
| < 100 | < 100 |  | CC[C@H]1CN([C@@H](c2ccc(S(F)(F)(F)(F)F)cc2)c2nc(C3CC3)cs2)[C@H](CC)CN1c1nc(=O)n(C)c2ccc(C#N)nc12 [Compound 99] |  |
| < 100 | 100 to 1000 |  | CC[C@H]1CN([C@@H](c2ccc(SC(F)(F)F)cc2)c2nc(C3CC3)cs2)[C@H](CC)CN1c1nc(=O)n(C)c2ccc(C#N)nc12 [Compound 58] |  |
| < 100 | 100 to 1000 |  | CC[C@@H]1CN(c2nc3nncn3c3ccc(C#N)nc23)[C@@H](C)CN1[C@H](CC)c1ccc(S(F)(F)(F)(F)F)cc1 (stereo in doubt) [Compound 90] |  |
| < 100 | < 100 |  | CC[C@H]1CN(C(C)c2ccc(SC(F)(F)F)cc2)[C@H](CC)CN1c1nc2nncn2c2ccc(C#N)nc12 (some centres unmarked) [Compound 51] |  |
| < 100 | 100 to 1000 |  | CC[C@H]1CN([C@H](CC)c2cccc(C(F)(F)F)c2)[C@H](CC)CN1c1nc2nncn2c2ccc(C#N)nc12 (stereo in doubt) [Compound 106] |  |
| < 100 | < 100 |  | CC[C@H]1CN([C@@H](CC)c2ccc(OC)cc2F)[C@H](CC)CN1c1nc2nncn2c2ccc(C#N)nc12 (stereo in doubt) [Compound 115] |  |
| < 100 | < 100 |  | CC[C@H]1CN([C@@H](CC)c2ccc(S(F)(F)(F)(F)F)cc2)[C@H](CC)CN1c1nc(=O)n(C)c2ccc(C#N)nc12 [Compound 28] |  |
| < 100 | 100 to 1000 |  | CC[C@H]1CN([C@@H](CC)c2ccc(S(F)(F)(F)(F)F)cc2)[C@H](CC)CN1c1nc(=O)n2c3c(cc(C#N)nc13)OCC2 (stereo in doubt) [Compound 83] |  |
